According to paper PMC3781056, “New Pyrazolopyrimidine Inhibitors of Protein Kinase D as Potent Anticancer Agents for Prostate Cancer Cells” (PLoS ONE, 2013):
Structures can show the parent of a compound that is named as a salt.

Biological target: T1, PKCα (Homo sapiens, UniProt P17252)
T1 construct: purchased SignalChem (Richmond, BC, Canada)
Test: In vitro radiometric PKC kinase assay
Format: biochemical
Conditions: 0.1, 1 and 10 µM
Experimental: (§1) The PKC kinase assay was carried out by co-incubating 1 µCi [γ-^32P]ATP, 20 µM ATP, 50 ng of purified PKCα or PKCδ and 5 µg of myelin basic protein 4–14, 0.25 mg/mL bovine serum albumin, 0.1 mg/mL phosphatidylcholine/phosphatidylserine (80/20%) (1 µM), 1 µM phorbol dibutyrate in 50 µL of kinase buffer containing 50 mM Tris-HCl, pH 7.5, 4 mM MgCl2 and 10 mM β-mercaptoethanol. For the CAMK assay, 50 ng of CAMKIIα and 2 µg syntide-2 substrate in 50 µL kinase buffer were incubated with 0.1 mM MgCl2, 1 µCi of [γ-^32P] ATP, 70 µM ATP. 0.5 mM CaCl2 and 30 ng/µL calmodulin were preincubated for 15 min on ice and then added in the kinase reaction. The reactions were incubated at 30°C for 10 min and 25 µL of the reaction was spotted on Whatman P81 filter paper. The filter paper was washed 3 times in 0.5% phosphoric acid, air dried and counted using Beckman LS6500 multipurpose scintillation counter.

SMILES	inhibition of PKCα, in words
CN(C)CCCn1cc(C2=C(c3c[nH]c4ccccc34)C(=O)NC2=O)c2ccccc21 [GF109203X, reference compound]	potently and concentration-dependently inhibited

Biological target: T2, PKCδ (Homo sapiens, UniProt Q05655)
T2 construct: purchased SignalChem (Richmond, BC, Canada)
T2 sequence (Q05655 whole entry): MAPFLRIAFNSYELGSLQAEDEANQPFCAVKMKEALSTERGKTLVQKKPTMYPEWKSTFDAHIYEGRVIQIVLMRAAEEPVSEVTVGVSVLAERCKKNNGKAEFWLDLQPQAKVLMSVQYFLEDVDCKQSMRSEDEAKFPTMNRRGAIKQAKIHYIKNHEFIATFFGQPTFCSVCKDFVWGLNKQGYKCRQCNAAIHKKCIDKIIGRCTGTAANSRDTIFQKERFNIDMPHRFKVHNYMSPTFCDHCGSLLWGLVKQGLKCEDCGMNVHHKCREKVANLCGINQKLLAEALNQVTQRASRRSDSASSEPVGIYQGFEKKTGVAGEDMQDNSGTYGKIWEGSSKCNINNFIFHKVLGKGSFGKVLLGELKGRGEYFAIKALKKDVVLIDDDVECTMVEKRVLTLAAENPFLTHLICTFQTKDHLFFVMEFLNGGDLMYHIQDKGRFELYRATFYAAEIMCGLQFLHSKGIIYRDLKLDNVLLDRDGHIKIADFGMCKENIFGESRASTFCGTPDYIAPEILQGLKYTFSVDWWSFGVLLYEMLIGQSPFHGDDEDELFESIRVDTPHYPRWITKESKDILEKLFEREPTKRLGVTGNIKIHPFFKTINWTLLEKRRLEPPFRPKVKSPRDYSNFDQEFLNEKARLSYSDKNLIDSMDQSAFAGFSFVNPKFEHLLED
Test: In vitro radiometric PKC kinase assay
Format: biochemical
Conditions: 0.1, 1 and 10 µM
Experimental: as §1

SMILES	inhibition of PKCδ, in words
CN(C)CCCn1cc(C2=C(c3c[nH]c4ccccc34)C(=O)NC2=O)c2ccccc21 [GF109203X, reference compound]	potently and concentration-dependently inhibited

Biological target: T3, PKD1 (Homo sapiens, UniProt Q15139)
T3 construct: GST; purchased Enzo Life sciences (Farmingdale, NY)
T3 sequence (Q15139 1-912): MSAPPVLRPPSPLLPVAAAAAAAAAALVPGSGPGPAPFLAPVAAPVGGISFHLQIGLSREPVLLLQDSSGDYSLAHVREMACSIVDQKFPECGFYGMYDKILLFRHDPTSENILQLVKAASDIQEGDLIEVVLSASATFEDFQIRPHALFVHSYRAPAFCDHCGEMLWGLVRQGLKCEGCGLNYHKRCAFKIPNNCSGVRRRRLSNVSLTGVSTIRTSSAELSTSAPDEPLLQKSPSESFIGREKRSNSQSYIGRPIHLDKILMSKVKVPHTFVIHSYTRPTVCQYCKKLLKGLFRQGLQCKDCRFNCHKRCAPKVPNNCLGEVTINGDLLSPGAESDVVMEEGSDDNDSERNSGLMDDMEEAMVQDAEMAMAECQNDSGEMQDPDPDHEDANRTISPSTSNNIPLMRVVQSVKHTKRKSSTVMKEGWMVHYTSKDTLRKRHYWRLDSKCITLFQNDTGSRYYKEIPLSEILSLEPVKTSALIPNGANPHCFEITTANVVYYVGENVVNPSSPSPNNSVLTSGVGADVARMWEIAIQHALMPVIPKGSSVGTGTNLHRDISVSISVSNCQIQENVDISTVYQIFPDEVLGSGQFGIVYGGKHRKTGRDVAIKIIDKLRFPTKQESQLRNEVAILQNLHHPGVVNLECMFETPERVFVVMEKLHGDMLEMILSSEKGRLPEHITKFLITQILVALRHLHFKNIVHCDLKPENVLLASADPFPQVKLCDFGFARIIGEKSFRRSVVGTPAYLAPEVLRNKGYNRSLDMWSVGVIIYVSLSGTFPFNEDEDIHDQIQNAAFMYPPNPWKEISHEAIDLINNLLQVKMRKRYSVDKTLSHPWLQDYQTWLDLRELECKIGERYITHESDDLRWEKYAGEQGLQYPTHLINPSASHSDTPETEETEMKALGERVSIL
Test: In vitro radiometric PKD1 screening assay at 1 µM
Format: biochemical
Conditions: 1 µM; targeted kinase inhibitor library screen; relative to DMSO
Experimental: Phosphorylation of HDAC5 was detected in a kinase reaction having 1 µCi [γ-^32P] […] The reaction was incubated at 30°C for 10 minutes and 25 µL of the reaction was spotted on Whatman P81 filter paper. The filter paper was washed 3 times in 0.5% phosphoric acid, air dried and counted using Beckman LS6500 multipurpose scintillation counter. Percent PKD1 inhibition was graphed using GraphPad Prism software 5.0.

% PKD1 Inhibition [%]	SMILES
47	O=C1Nc2cc(Br)ccc2/C1=C1/Nc2ccccc2/C1=N\O [BIO]
45	NC(=O)c1ccc(-c2nc(-c3ccc4c(c3)OCCO4)c(-c3ccccn3)[nH]2)cc1 [D 4476]
68	Cc1ccccc1C(=O)c1ccc(Nc2ccc(Br)cc2N)cc1Cl [EO 1428]
66	Cl.Cl.O=S(=O)(NCCNC/C=C/c1ccc(Br)cc1)c1cccc2cnccc12 [H 89 Dihydrochloride]
72	CS(=O)(=O)O.Cn1cc(C2=C(c3cn(CCCSC(=N)N)c4ccccc34)C(=O)NC2=O)c2ccccc21 [Ro 31-8220 Mesylate]
74	Fc1ccc(Cl)cc1-c1nc(Nc2ccncc2)c2nccnc2n1 [SD 208]

SMILES	% PKD1 Inhibition [%]
O=C1NC(=O)c2c1c1c3ccccc3[nH]c1c1[nH]c3ccccc3c21 [Arcyriaflavin A]	75
O=C1NC(=O)c2c1c1c3ccccc3n3c1c1c2c2ccccc2n1C1CCC3O1 [SB 218078]	85

Same assay, conditions: 1 µM; targeted kinase inhibitor library screen; relative to DMSO; read-out: % PKD1 Inhibition

inhibition at 1 µM [%]	SMILES
41	O=S(=O)(c1cccc2cnccc12)N1CCCNCC1 [Fasudil hydrochloride]
74	Oc1c2ccccc2c2c3c(cccc13)N=N2 [SP 600125]

Same assay, conditions: SAR of synthesized 1-NA-PP1 analogs

PKD1 inhibitory activity, SAR result in words	SMILES
ablated the PKD1 activity	CNc1ncnc2c1c(-c1cccc3ccccc13)nn2C(C)(C)C [Compound 1a, 1-(t-Butyl)-N-methyl-3-(naphthalen-1-yl)-1H-pyrazolo[3,4-d]pyrimidin-4-amine]
did not show an increase in potency	COc1ccc(-c2nn(C)c3nc(Cl)nc(N)c23)cc1 [Compound 1j, 6-Chloro-3-(4-methoxyphenyl)-1-methyl-1H-pyrazolo[3,4-d]pyrimidin-4-amine]
did not show an increase in potency	CNc1nc(Cl)nc2c1c(-c1ccc(OC)cc1)nn2C [Compound 1k, 6-Chloro-3-(4-methoxyphenyl)-N,1-dimethyl-1H-pyrazolo[3,4-d]pyrimidin-4-amine]
did not show an increase in potency	CNc1nc(Cl)nc2c1c(-c1ccc(OC(F)(F)F)cc1)nn2C [Compound 1m, 6-Chloro-N,1-dimethyl-3-(4-(trifluoromethoxy)phenyl)-1H-pyrazolo[3,4-d]pyrimidin-4-amine]
did not show an increase in potency	CNc1ncnc2c1c(-c1ccc(-c3ccccc3)cc1)nn2C [Compound 1p, 3-([1,1'-Biphenyl]-4-yl)-N,1-dimethyl-1H-pyrazolo[3,4-d]pyrimidin-4-amine]

Same assay, conditions: read-out: inhibition of PKD1 activity

inhibition at 1 µM [%]	SMILES
32	Cn1nc(-c2cccc3ccccc23)c2c(N)ncnc21 [Compound 1f, 1-Methyl-3-(naphthalen-1-yl)-1H-pyrazolo[3,4-d]pyrimidin-4-amine]

Tested on: not given
Test: not given
Conditions: not given

melting point [°C]	SMILES
152.4 to 156.3	CNc1ncnc2c1c(-c1cccc3ccccc13)nn2C(C)(C)C [Compound 1a, 1-(t-Butyl)-N-methyl-3-(naphthalen-1-yl)-1H-pyrazolo[3,4-d]pyrimidin-4-amine]
89.3 to 91.2	CNc1ncnc2c1c(-c1ccc(OC)cc1)nn2C(C)(C)C [Compound 1c, 1-(t-Butyl)-3-(4-methoxyphenyl)-N-methyl-1H-pyrazolo[3,4-d]pyrimidin-4-amine]
185 to 188	COc1ccc(-c2nn(C)c3ncnc(N)c23)cc1 [Compound 1h, 3-(4-Methoxyphenyl)-1-methyl-1H-pyrazolo[3,4-d]pyrimidin-4-amine]
> 250	COc1ccc(-c2nn(C)c3nc(Cl)nc(N)c23)cc1 [Compound 1j, 6-Chloro-3-(4-methoxyphenyl)-1-methyl-1H-pyrazolo[3,4-d]pyrimidin-4-amine]
159.3 to 160.9	CNc1nc(Cl)nc2c1c(-c1ccc(OC)cc1)nn2C [Compound 1k, 6-Chloro-3-(4-methoxyphenyl)-N,1-dimethyl-1H-pyrazolo[3,4-d]pyrimidin-4-amine]
189.9 to 192.3	CNc1nc(Cl)nc2c1c(-c1ccc(F)cc1)nn2C [Compound 1o, 6-Chloro-3-(4-fluorophenyl)-N,1-dimethyl-1H-pyrazolo[3,4-d]pyrimidin-4-amine]
